From patent US4366311A, “Novel dianemycin derivative” (Taisho Pharmaceutical Co., Ltd., priority 1980, dated 1982)
Where a name gives a salt, the structure may show the parent alone.

How the values were obtained:
toxoplasma RH strain = experiment: Anti-toxoplasma effect in cultivated mouse macrophage (Test Example 1); format: cell-based, in macrophage of normal ICR mice; conditions: 0.1 ppm compound in medium, 37° C., 48 hours
Experimental: (§1) Normal ICR mice were intraperitoneally injected with 1 ml of a sterilized 0.2% solution of glycogen in saline solution and, after 5 days, intraperitoneally injected with 5 ml of a Hank's solution containing heparin to collect macrophage.
(§2) After centrifugation and washing, the macrophage was diluted with a medium of TC-199 containing 20% of calf serum so that the resulting solution contained about 10^6 cells/ml of macrophage. 1 ml of this suspension was pipetted into a cultivation Petri dish containing circular cover glass of 1.5 cm in diameter, followed by cultivation for 24 hours in an incubator containing 5% of carbon dioxide.
(§3) 5×10^5 toxiplasma RH strain collected on the 2nd day after intraperitoneal infection of mice were brought into contact with the thus cultivated macrophage at 37° C. for about 1 hour, and non-infectingtoxiplasma RH strain were washed away using the same medium followed by adding thereto the same medium.
(§4) A drug-containing group was prepared by adding compound I sodium salt to the medium so that the final concentration of the compound became 0.1 ppm.
(§5) Medical effects were evaluated as follows; After cultivation at 37° C. for 48 hours, May-Grunwald/Giemsa double straining was conducted to determine the percentage of macrophage cells containing therein 1 to 5 toxoplasma or 6 or more toxoplasma, thus the infected control group was compared with the drug-added group.

macrophage = experiment: Cytotoxic effect on macrophage, observation under an optical microscope; format: cell-based, ICR mice; conditions: 0.1 ppm compound in medium
Experimental: as §1, §2, §3, §4, §5

Bacillus licheniformis = experiment: MIC, antibacterial effects (Test Example 2); format: cell-based; conditions: infusion agar medium, read-out: MIC (Minimum Inhibitory Concentration)
Experimental: (§6) MIC (Minimum Inhibitory Concentration) was measured according to the method specified by the Chemotherapeutic Society using a heat infusion agar medium containing compound I sodium salt, to examine antibacterial effects of the compound.

[1] = system: Bacillus subtilis ATCC 6633; experiment: MIC, antibacterial effects (Test Example 2); format: cell-based; conditions: ATCC6633, infusion agar medium, read-out: MIC (Minimum Inhibitory Concentration)
Experimental: as §6

[2] = system: Escherichia coli NIHJ C-2; experiment: MIC, antibacterial effects (Test Example 2); format: cell-based; conditions: NIHJC2, infusion agar medium, read-out: MIC (Minimum Inhibitory Concentration)
Experimental: as §6

[3] = system: Staphylococcus aureus FDA 209 P; experiment: MIC, antibacterial effects (Test Example 2); format: cell-based; conditions: FDA209, infusion agar medium, read-out: MIC (Minimum Inhibitory Concentration)
Experimental: as §6

[4] = system: Staphylococcus aureus Smith; experiment: MIC, antibacterial effects (Test Example 2); format: cell-based; conditions: infusion agar medium, read-out: MIC (Minimum Inhibitory Concentration)
Experimental: as §6

[5] = system: Staphylococcus aureus TPR-23; experiment: MIC, antibacterial effects (Test Example 2); format: cell-based; conditions: TPR23, infusion agar medium, read-out: MIC (Minimum Inhibitory Concentration)
Experimental: as §6

[6] = system: Staphylococcus epidermidis IID 866; experiment: MIC, antibacterial effects (Test Example 2); format: cell-based; conditions: IID866, infusion agar medium, read-out: MIC (Minimum Inhibitory Concentration)
Experimental: as §6

[7] = system: Staphylococcus epidermidis TPR-25; experiment: MIC, antibacterial effects (Test Example 2); format: cell-based; conditions: TPR25, infusion agar medium, read-out: MIC (Minimum Inhibitory Concentration)
Experimental: as §6

[8] = system: Streptococcus faecalis ATCC 8043; experiment: MIC, antibacterial effects (Test Example 2); format: cell-based; conditions: Enterococcus faecalis, ATCC8043, infusion agar medium, read-out: MIC (Minimum Inhibitory Concentration)
Experimental: as §6

[9] = Acute toxicity, LD50 in mice (Test Example 3); parameters: species or system mice (ddY strain, 4-week old); conditions: mouse, in vivo, ip; ddY male mice, intraperitoneal, mortality over 7 consecutive days; 5% gum arabic in saline
Experimental: Compound I sodium salt and the control drug of dianemycin sodium salt were respectively suspended in a 5% solution of gum arabic in saline solution.
Two groups of 7 ddY strain male mice (4-week old) were intraperitoneally injected with each of the above-described drug suspension. LD50 values (mg/kg) of the compounds were determined from the total mortality per group for 7 consecutive days to examine the acute toxicity.

SMILES | Percentage of Toxoplasma-infected Macrophage, 1 to 5 Toxoplasma/cell (toxoplasma RH strain; infected control group 30.8) | Percentage of Toxoplasma-infected Macrophage, 6 or more Toxoplasma/cell (toxoplasma RH strain; infected control group 31.8) | cytotoxic effect (macrophage) | MIC (Bacillus licheniformis) | MIC [1] | MIC [2] | MIC [3] | MIC [4] | MIC [5] | MIC [6] | MIC [7] | MIC [8] | LD50 at 168 h [9]
C/C(=C\C(C)C1OC2(CCC(C)(C3CC(O)C(C)C4(OC(C5OC(O)(CO)C(C)CC5C)CC4C)O3)O2)CC(O)C1C)C(=O)C(C)CC(C)C(=O)O (centres unmarked) [Compound I sodium salt] | 0% | 0% | no cytotoxic effect | 12.5 µg/mL | 25 µg/mL | > 200 µg/mL | 25 µg/mL | 50 µg/mL | 50 µg/mL | 50 µg/mL | 50 µg/mL | 50 µg/mL | 191 mg/kg
COC1CCC(OC2CC(C3(C)CCC4(CC(O)C(C)C(C(C)/C=C(\C)C(=O)C(C)CC(C)C(=O)O)O4)O3)OC3(OC(C4OC(O)(CO)C(C)CC4C)CC3C)C2C)OC1C (centres unmarked) [Dianemycin Sodium Salt, reference compound] | – | – | – | – | – | – | – | – | – | – | – | – | 7.2 mg/kg
